Results published in patent publication US10738028B2, “Spiro three-membered ring, spiro five-membered ring peptide deformylase inhibitor and use thereof in antibacteria and anti-tumor” (priority 2016, dated 2020).

How the values were obtained:
Assay type in all cases: cell-based
[1] = test system: Enterococcus faecalis (EFA); experiment: MIC, two-fold agar dilution (CLSI), clinical isolates
Outline: (§1)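 Susceptibility was tested using CLSI two-fold agar dilution against the strains examined.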

[2] = test system: Enterococcus faecium (EFM); experiment: as above
Outline: as §1

[3] = test system: Escherichia coli (including ESBLs, non-ESBLs); experiment: as above
Outline: as §1

[4] = test system: Moraxella catarrhalis (BCA); experiment: as above
Outline: as §1

[5] = test system: Streptococcus pneoumoniae (SPN); experiment: as above
Outline: as §1

[6] = test system: methicillin-resistant Staphylococcus aureus (MRSA); experiment: as above
Outline: as §1

[7] = test system: methicillin-resistant Staphylococcus epidermidis (MRSE); experiment: as above
Outline: as §1

[8] = test system: methicillin-sensitive Staphylococcus aureus (MSSA); experiment: as above
Outline: as §1

[9] = test system: methicillin-sensitive Staphylococcus epidermidis (MSSE); experiment: as above
Outline: as §1

[10] = test system: HCT-116 colorectal cancer cell line; experiment: CCK-8 proliferation inhibition; details: concentration of 30 μM, 72 hours, CCK-8
Outline: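 Proliferation over 72 hours of compound treatment was measured with CCK-8 against a 1‰ DMSO control.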

[11] = test system: A549 lung cancer cell line; experiment: CCK-8 proliferation inhibition; details: concentration of 30 μM
Outline: (§2)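 Plating at 2000 cells/well, then incubation overnight at 37° C. Next, a range of compound concentrations for 72 hours (control 1‰ DMSO). Finally, medium decanted and CCK-8 diluted 1:10 added.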

[12] = test system: BEL-7402 liver cancer cell line; experiment: CCK-8 proliferation inhibition; details: concentration of 30 μM, 72 hours, 30 µM
Outline: as §2

[13] = test system: MGC-803 gastric cancer cell line; experiment: CCK-8 proliferation inhibition; details: concentration of 30 μM
Outline: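 Using media specific to each line (1640 for MGC-803 and Jurkat, F12 for PC3, DMEM high glucose for MCF-7, each with 10% newborn bovine serum), cells at 2000/well were treated for 72 h with serially formulated compounds, then assessed with CCK-8 diluted 1:10.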

O=C(C[C@@H](CC1CCCC1)C(=O)N1CC2(CC2)C[C@H]1C(=O)Nc1ccncn1)NO [Example 63]
Anti-bacterial activity (MIC), strain EFA 15-1 ([1]; clinical isolate EFA 15-1): > 32 µg/mL
Anti-bacterial activity (MIC), strain EFA 15-2 ([1]; clinical isolate EFA 15-2): > 32 µg/mL
Anti-bacterial activity (MIC), strain EFA 15-3 ([1]; clinical isolate EFA 15-3): > 32 µg/mL
Anti-bacterial activity (MIC), strain EFA 15-4 ([1]; clinical isolate EFA 15-4): > 32 µg/mL
Anti-bacterial activity (MIC), strain EFA 15-5 ([1]; clinical isolate EFA 15-5): > 32 µg/mL
Anti-bacterial activity (MIC), strain EFA 15-6 ([1]; clinical isolate EFA 15-6): > 32 µg/mL
Anti-bacterial activity (MIC), strain EFA 15-9 ([1]; clinical isolate EFA 15-9): 4 µg/mL
Anti-bacterial activity (MIC), strain EFM 15-1 ([2]; clinical isolate EFM 15-1): > 32 µg/mL
Anti-bacterial activity (MIC), strain EFM 15-2 ([2]; clinical isolate EFM 15-2): > 32 µg/mL
Anti-bacterial activity (MIC), strain EFM 15-3 ([2]; clinical isolate EFM 15-3): > 32 µg/mL
Anti-bacterial activity (MIC), strain EFM 15-4 ([2]; clinical isolate EFM 15-4): 0.5 µg/mL
Anti-bacterial activity (MIC), strain EFM 15-5 ([2]; clinical isolate EFM 15-5): 0.25 µg/mL
Anti-bacterial activity (MIC), strain EFM 15-6 ([2]; clinical isolate EFM 15-6): 0.25 µg/mL
Anti-bacterial activity (MIC), strain ECO+ 15-1 ([3]; clinical isolate ECO+ 15-1): 16 µg/mL
Anti-bacterial activity (MIC), strain ECO+ 15-2 ([3]; clinical isolate ECO+ 15-2): 32 µg/mL
Anti-bacterial activity (MIC), strain ECO+ 15-3 ([3]; clinical isolate ECO+ 15-3): 16 µg/mL
Anti-bacterial activity (MIC), strain ECO+ 15-4 ([3]; clinical isolate ECO+ 15-4): 16 µg/mL
Anti-bacterial activity (MIC), strain ECO− 15-1 ([3]; clinical isolate ECO− 15-1): 16 µg/mL
Anti-bacterial activity (MIC), strain ECO− 15-2 ([3]; clinical isolate ECO− 15-2): 16 µg/mL
Anti-bacterial activity (MIC), strain ECO− 15-3 ([3]; clinical isolate ECO− 15-3): 32 µg/mL
Anti-bacterial activity (MIC), strain ECO− 15-4 ([3]; clinical isolate ECO− 15-4): 16 µg/mL
Anti-bacterial activity (MIC), strain BCA 14-1 ([4]; clinical isolate BCA 14-1): 2 µg/mL
Anti-bacterial activity (MIC), strain BCA 14-4 ([4]; clinical isolate BCA 14-4): 2 µg/mL
Anti-bacterial activity (MIC), strain BCA 14-5 ([4]; clinical isolate BCA 14-5): 0.25 µg/mL
Anti-bacterial activity (MIC), strain BCA 14-6 ([4]; clinical isolate BCA 14-6): 0.25 µg/mL
Anti-bacterial activity (MIC), strain BCA 14-7 ([4]; clinical isolate BCA 14-7): 4 µg/mL
Anti-bacterial activity (MIC), strain BCA 14-8 ([4]; clinical isolate BCA 14-8): 0.5 µg/mL
Anti-bacterial activity (MIC), strain BCA 14-10 ([4]; clinical isolate BCA 14-10): 0.5 µg/mL
Anti-bacterial activity (MIC), strain SPN 16-2 ([5]; clinical isolate SPN 16-2): 0.5 µg/mL
Anti-bacterial activity (MIC), strain SPN 16-4 ([5]; clinical isolate SPN 16-4): 0.5 µg/mL
Anti-bacterial activity (MIC), strain MRSA 15-1 ([6]; clinical isolate MRSA 15-1): 0.125 µg/mL
Anti-bacterial activity (MIC), strain MRSA 15-2 ([6]; clinical isolate MRSA 15-2): 0.25 µg/mL
Anti-bacterial activity (MIC), strain MRSA 15-3 ([6]; clinical isolate MRSA 15-3): 0.125 µg/mL
Anti-bacterial activity (MIC), strain MRSA 15-4 ([6]; clinical isolate MRSA 15-4): 0.25 µg/mL
Anti-bacterial activity (MIC), strain MRSE 15-1 ([7]; clinical isolate MRSE 15-1): 0.25 µg/mL
Anti-bacterial activity (MIC), strain MRSE 15-2 ([7]; clinical isolate MRSE 15-2): 0.25 µg/mL
Anti-bacterial activity (MIC), strain MRSE 15-3 ([7]; clinical isolate MRSE 15-3): 0.25 µg/mL
Anti-bacterial activity (MIC), strain MRSE 15-7 ([7]; clinical isolate MRSE 15-7): 0.25 µg/mL
Anti-bacterial activity (MIC), strain MSSA 15-3 ([8]; clinical isolate MSSA 15-3): 0.25 µg/mL
Anti-bacterial activity (MIC), strain MSSA 15-4 ([8]; clinical isolate MSSA 15-4): 0.125 µg/mL
Anti-bacterial activity (MIC), strain MSSA 15-5 ([8]; clinical isolate MSSA 15-5): 0.125 µg/mL
Anti-bacterial activity (MIC), strain MSSA 15-6 ([8]; clinical isolate MSSA 15-6): 16 µg/mL
Anti-bacterial activity (MIC), strain MSSE 15-3 ([9]; clinical isolate MSSE 15-3): 0.125 µg/mL
Anti-bacterial activity (MIC), strain MSSE 15-4 ([9]; clinical isolate MSSE 15-4): 0.25 µg/mL
Anti-bacterial activity (MIC), strain MSSE 15-5 ([9]; clinical isolate MSSE 15-5): 0.25 µg/mL
Anti-bacterial activity (MIC), strain MSSE 15-6 ([9]; clinical isolate MSSE 15-6): 0.125 µg/mL
inhibition at 30 µM ([10]; Homo sapiens, HCT-116, 72 h, read-out: HCT116 inhibition rate/%): > 50%
HCT116 inhibition rate/% ([10]; 30 µM): 68%
inhibition at 30 µM ([11]; Homo sapiens, A549, 72 h): > 50%
Inhibition of proliferation, Lung cancer A549 ([11]; 72 hours, 30 µM): 63%
Inhibition of proliferation, Liver cancer BEL-7402 [12]: 74%
inhibition at 30 µM ([13]; Homo sapiens, MGC-803, 72 h): > 50%
Inhibition of proliferation, Gastric cancer MGC-803 ([13]; 72 hours, 30 µM): 58%
